Results taken from US7850970B2, “Inhibitors of serine protease activity and their use in methods and compositions for treatment of bacterial infections” (priority 2003, dated 2010).
Values joined by “and” are separate entries in the source; they are usually repeats but may differ in a detail not shown here. Equal values may be shown once. Residues, ends and D or L forms follow the SMILES beside them. *: point of attachment. CH2Cl = ClC*

Experiments:
[1] = tested on: MAC (strain Mycobacterium avium 9141); test: MAC infection of human monocyte-derived macrophages, colony counts; assay type: cell-based; conditions: FIG. 1
interleukin-1 beta = test: Stimulated interleukin-1 beta production in whole human blood; assay type: cell-based; conditions: whole human blood diluted 1:4, heat-killed Staphylococcus epidermidis 1:1000, 24 hrs, all concentrations tested, FIG. 5
Procedure: Design: Venipuncture was performed on 3 healthy volunteers using a 21-gauge needle, and the venous blood was aspirated into a heparinized tube. Blood was then aliquoted into 6 milliliter polypropylene tubes and diluted 1:4 with sterile RPMI tissue culture medium alone (Control), diluted 1:4 in medium containing heat-killed Staphylococcus epidermidis at a final concentration of 1:1000 as a stimulus (Staph), or into tubes containing Staphylococcus epidermidis and alpha-1-antitrypsin (AAT, Aralast® from Baxter). All cultures were then incubated ×24 hrs at 37° C./5% CO2). Following incubation, the samples were centrifuged ×1,500 g, and the supernatants collected. Supernatants were assayed for interleukin-1 beta concentration using a validated electrochemiluminescence apparatus that quantifies cytokine proteins.

TB (strain H37RV) [2] = assay type: cell-based, m. tuberculosis
TB (strain H37RV) [3] = assay type: cell-based, m. tuberculosis; conditions: AAT 5.0 mg/ml-exposed MDM; control MDM (no AAT) 20% and 17%
[4] = tested on: MAC (strain Mycobacterium avium 9141); test: MAC infection of human monocyte-derived macrophages, direct observation and counting of infected cells; assay type: cell-based; conditions: AAT 5.0 mg/ml-exposed MDM, control MDM (no AAT) 17%

Compound: CC(C)[C@H](NC(=O)[C@@H]1CCCN1C(=O)[C@H](C)NC(=O)[C@H](C)N)C(=O)CCl [AAT mimic, ala-ala-pro-val-chloromethyl ketone, reference compound] (H-AAPV-CH2Cl)
- effect on MAC infection of MDM [1]: confirm the AAT data

Compound: α1-antitrypsin [AAT]
- inhibition of infection of MDM with MAC (mean effect) ([1]; 4 separate experiments): approximately 55%
- Staph-stimulated interleukin-1 beta production (interleukin-1 beta): significantly inhibited
- TB counts per ml (TB (strain H37RV) [2]; AAT-exposed MDM cultures, control MDM cultures 1.6×10^5 per ml): 0.57×10^5 per ml
- inhibitory effect on cell-associated TB counts (TB (strain H37RV) [2]; AAT-exposed versus control MDM cultures): 64%
- percent of cells infected with m. tuberculosis (TB (strain H37RV) [3]): 4% and 6%
- percent of cells infected [4]: 10%
